In publication PMC10726441, “Discovery of Tumor-Targeted 6-Methyl Substituted Pemetrexed and Related Antifolates with Selective Loss of RFC Transport” (ACS Medicinal Chemistry Letters, 2023):

Experiments:
Assay type in all cases: cell-based, Chinese hamster
RT16 (FRα) CHO cells = test: Cell proliferation assay, RT16 CHO cells expressing human FRα; conditions: for IC50: Cricetulus griseus, RT16, 96 h, 0-1000 nM, mean (standard error), 3-5 experiments; for RFC/FRα Selectivity ratios: ratio of IC50 PC43-10 (RFC) to IC50 RT16 (FRα)
From the text: (§1) To assess the impact of 6-methyl substitutions on the bicyclic scaffolds of the pyrrolo[2,3-d]pyrimidine antifolates 1–4 on RFC transport vis-à-vis PCFT, FRα, and FRβ, we used a unique biological readout for transport activity. This involved proliferation assays with isogenic Chinese hamster ovary (CHO) sublines derived from RFC-, FR-, and PCFT-null MTXRIIOua^R2–4 CHO cells[39],[40] engineered to express the human FRα (RT16),[25] FRβ (D4),[25] RFC (PC43–10),[41] or PCFT (R2/PCFT4).[26],[42] As these CHO cell lines are genetically identical except for their folate transporters, differences in inhibition of cell proliferation by specific cytotoxic antifolates directly reflect transporter specificities.[19],[23]−[31],[42] […]
(§2) Reagents for biological studies. Leucovorin [(6R,S) 5-formyl tetrahydrofolate] and methotrexate (MTX) was provided by the Drug Development Branch, National Cancer Institute, Bethesda, MD. Other chemicals were obtained from commercial sources in the highest available purities. Pemetrexed (PMX; 1) [N-{4-[2- (2-amino-3,4-dihydro-4-oxo-7H-pyrrolo[2,3-d]pyrimidin-5-yl)ethyl]benzoyl-L-glutamic acid] (Alimta) was purchased from LC Laboratories (Woburn, MA). The syntheses of compounds 2 and 3 were previously described.7, 8 Additional chemicals were purchased from commercial sources in the highest available purities.
(§3) Cell Culture. The reduced folate carrier (RFC), proton-coupled folate transporter (SLC46A1; PCFT) and folate receptor (FR) α- and β-null Chinese hamster ovary (CHO) cell line MTXRIIOuaR2-49 was a gift from Dr. Wayne Flintoff (University of Western Ontario, London, ON). Four sublines were derived from the R2 subline by transfection with either RFC, PCFT, FRα, or FRβ, giving rise to PC43-10 (expresses human RFC), 10 R2/PCFT4 (expresses human PCFT),11 RT16 (expresses human FRα), 12 and D4 (expresses FRβ) cells. 12 Isogenic CHO sublines were routinely cultured in α-minimal essential medium (α-MEM) supplemented with 100 units/mL penicillin/100 μg/mL streptomycin, 2 mM L-glutamine and 10% bovine calf serum (Sigma-Aldrich). Transfected sublines of R2 cells were cultured in the presence of 1.5 mg/ml G418. […]
(§4) mM L-glutamine. Cell lines were tested for Mycoplasma by PCR using a Mycloplasma testing kit (Venor™ GeM Mycoplasma Detection Kit, Sigma). Frozen stocks were generated from authenticated Mycoplasma-free cultures.
(§5) For cell proliferation assays, CHO, KB, NCI-IGROV1 and IOSE 7576 cells were plated in 96-well dishes at densities ranging from 2500-5000 cells/well in 200 μL media and treated with a range of inhibitors spanning 0-1000 nM. Experiments with RT16, D4, IGROV1, IOSE 7576 and KB cells used folate-free RPMI 1640 (FF RPMI) media with 10% dialyzed fetal bovine serum and 100 units/mL penicillin/100 μg/mL streptomycin, supplemented with 2 nM leucovorin and 2 mM L-glutamine. FR-mediated drug uptake was assessed in parallel incubations including 200 nM folic acid. For R2/PCFT4, PC43-10 and R2 CHO cells, the medium was FF-RPMI supplemented with 10% dialyzed fetal bovine serum, 100 units/mL penicillin/100 μg/mL streptomycin, 25 nM leucovorin and 2 mM L-glutamine.
(§6) Cells were treated over a 96 h period at 37° C with 5% CO2 and relative cell numbers quantified using the CellTiter-blue cell viability assay (Promega, Madison, WI) and a fluorescence plate reader. Raw data were exported to Excel for analysis and the results were plotted using Graphpad Prism 6.0. Determinations of IC50s were made […]
(§7) assays have been previously described.7, 8, 11, 12, 15-20
(§8) Using KB cells, additional proliferation assays were performed with metabolite protection in folate- and glycine-free RPMI1640 with 10% dialyzed fetal bovine serum, 2 mM L-glutamine and antibiotics with 2 nM leucovorin to identify the targeted pathway and enzyme(s). 7, 8, 11, 12, 15-20 Inhibitory effects of the novel analogs on de novo thymidylate biosynthesis and de novo purine nucleotide biosynthesis were tested by incubating drugs with thymidine (10 μM) and adenosine (60 μM), respectively. […]

D4 (FRβ) CHO cells = test: Cell proliferation assay, D4 CHO cells expressing FRβ; conditions: for IC50: Cricetulus griseus, CHO, 96 h, 0-1000 nM, mean (standard error), 3-5 experiments; for RFC/FRβ Selectivity ratios: ratio of IC50 PC43-10 (RFC) to IC50 D4 (FRβ)
From the text: as §1, §2, §3, §4, §5, §6, §7, §8

[1] = test system: R2/PCFT4 (PCFT) CHO cells; test: Cell proliferation assay, R2/PCFT4 CHO cells expressing human PCFT; conditions: for IC50: Cricetulus griseus, R2/PCFT4, 96 h, 0-1000 nM, mean (standard error), 3-5 experiments; for RFC/PCFT Selectivity ratios: ratio of IC50 PC43-10 (RFC) to IC50 R2/PCFT4 (PCFT)
From the text: as §1, §2, §3, §4, §5, §6, §7, §8

SMILES	IC50 (RT16 (FRα) CHO cells)	IC50 (D4 (FRβ) CHO cells)	IC50 [1]	RFC/PCFT Selectivity ratios [1]	RFC/FRα Selectivity ratios (RT16 (FRα) CHO cells)	RFC/FRβ Selectivity ratios (D4 (FRβ) CHO cells)
Nc1nc2[nH]cc(CCc3ccc(C(=O)N[C@@H](CCC(=O)O)C(=O)O)cc3)c2c(=O)[nH]1 [Compound 1, reference compound]	14 nM	63.2 nM	–	–	–	–
Nc1nc2[nH]cc(CCCc3ccc(C(=O)N[C@@H](CCC(=O)O)C(=O)O)cc3)c2c(=O)[nH]1 [Compound 2]	47.9 nM	3.54 nM	–	–	–	–
Nc1nc2[nH]cc(CCc3ccc(C(=O)N[C@@H](CCC(=O)O)C(=O)O)s3)c2c(=O)[nH]1 [Compound 3]	550 nM	552 nM	80.2 nM	0.75	0.11	0.11
Nc1nc2[nH]cc(CCc3ccc(C(=O)N[C@@H](CCC(=O)O)C(=O)O)c(F)c3)c2c(=O)[nH]1 [Compound 4]	6.76 nM	8.9 nM	25.9 nM	6.5	25	19
Cc1[nH]c2nc(N)[nH]c(=O)c2c1CCc1ccc(C(=O)N[C@@H](CCC(=O)O)C(=O)O)cc1 [Compound 5]	94.8 nM	5.7 nM	7.66 nM	>130	>10.5	>175
Cc1[nH]c2nc(N)[nH]c(=O)c2c1CCCc1ccc(C(=O)N[C@@H](CCC(=O)O)C(=O)O)cc1 [Compound 6]	63.8 nM	2.61 nM	64.7 nM	>15.5	>15.7	>383
Cc1[nH]c2nc(N)[nH]c(=O)c2c1CCc1ccc(C(=O)N[C@@H](CCC(=O)O)C(=O)O)s1 [Compound 7]	2.53 nM	2.98 nM	51.5 nM	>19.4	>395	>335
Cc1[nH]c2nc(N)[nH]c(=O)c2c1CCc1ccc(C(=O)N[C@@H](CCC(=O)O)C(=O)O)c(F)c1 [Compound 8]	100 nM	49 nM	> 1000 nM	–	>10	>20
